MIC data for 12 compounds are collected here from ChEMBL document CHEMBL1155151, “First occurrence of an Escherichia coli clinical isolate producing the VIM-1/VIM-2 hybrid metallo-beta-lactamase VIM-12” (2007).

Format in all cases: functional
Assay [1] has as its system Escherichia coli. Kind of assay: Antibacterial activity against metallo-beta-lactamase VIM12 expressing Escherichia coli 28 isolate from decubitus ulcer infection patient by Etest.
The test system of assay [2] is Escherichia coli. Kind of assay: Antibacterial activity against Escherichia coli transconjugant carrying pEC28 isolate eby Etest.
Assay [3] relates to Escherichia coli. Nature of the assay: Antibacterial activity against Escherichia coli 26R793 by Etest.

SMILES strings stand for the structures. Values after ≈ are worked out from the molar mass of the structure shown.

In the case of `NCC[C@H](O)C(=O)N[C@@H]1C[C@H](N)[C@@H](O[C@H]2O[C@H](CN)[C@@H](O)[C@H](O)[C@H]2O)[C@H](O)[C@H]1O[C@H]1O[C@H](CO)[C@@H](O)[C@H](N)[C@H]1O` [AMIKACIN], the MIC (usually the lowest concentration found to suppress growth) was determined as 128 µg/mL (≈ 219 µM) in the assay with Escherichia coli [1], 48 µg/mL (≈ 82 µM) with Escherichia coli [2] and 2 µg/mL (≈ 3.42 µM) against Escherichia coli [3].
The matching figures for `CC1(C)S[C@@H]2[C@H](NC(=O)[C@H](N)c3ccc(O)cc3)C(=O)N2[C@H]1C(=O)O` [AMOXICILLIN]: more than 256 µg/mL, 32 µg/mL (≈ 87.6 µM) and 4 µg/mL (≈ 10.9 µM).
For `C[C@H]1[C@H](NC(=O)/C(=N\OC(C)(C)C(=O)O)c2csc(N)n2)C(=O)N1S(=O)(=O)O` [AZTREONAM], the values for the MIC with Escherichia coli [1], in the assay on Escherichia coli [2] and in the assay with Escherichia coli [3] were 1 µg/mL (≈ 2.3 µM), 0.5 µg/mL (≈ 1.15 µM) and 0.094 µg/mL (≈ 0.216 µM), respectively.
For `CO/N=C(\C(=O)N[C@@H]1C(=O)N2C(C(=O)[O-])=C(C[N+]3(C)CCCC3)CS[C@H]12)c1csc(N)n1` [CEFEPIME] the same measures were 12 µg/mL (≈ 25 µM), 1 µg/mL (≈ 2.08 µM) and 0.094 µg/mL (≈ 0.196 µM).
Consider `CO/N=C(\C(=O)N[C@@H]1C(=O)N2C(C(=O)O)=C(COC(C)=O)CS[C@H]12)c1csc(N)n1` [CEFOTAXIME], for which the MIC against Escherichia coli [1] is more than 32 µg/mL; with Escherichia coli [2], 8 µg/mL (≈ 17.6 µM); against Escherichia coli [3], 0.094 µg/mL (≈ 0.206 µM).
The matching figures for `CO[C@@]1(NC(=O)Cc2cccs2)C(=O)N2C(C(=O)O)=C(COC(N)=O)CS[C@@H]21` [CEFOXITIN]: more than 256 µg/mL, 32 µg/mL (≈ 74.9 µM) and 8 µg/mL (≈ 18.7 µM).
The matching figures for `CC(C)(O/N=C(\C(=O)N[C@@H]1C(=O)N2C(C(=O)[O-])=C(C[n+]3ccccc3)CS[C@H]12)c1csc(N)n1)C(=O)O` [CEFTAZIDIME]: more than 256 µg/mL, 4 µg/mL (≈ 7.32 µM) and 0.75 µg/mL (≈ 1.37 µM).
Take `O=C(O)c1cn(C2CC2)c2cc(N3CCNCC3)c(F)cc2c1=O` [CIPROFLOXACIN]: the MIC against Escherichia coli [1], against Escherichia coli [2] and in the assay with Escherichia coli [3] was 0.047 µg/mL (≈ 0.142 µM) each time.
For the compound `C[C@@H](O)[C@H]1C(=O)N2C(C(=O)O)=C(S[C@@H]3CN[C@H](C(=O)Nc4cccc(C(=O)O)c4)C3)[C@H](C)[C@H]12` [ERTAPENEM], the figures for the MIC with Escherichia coli [1], in the assay with Escherichia coli [2] and in the assay on Escherichia coli [3] were 0.5 µg/mL (≈ 1.05 µM), 0.094 µg/mL (≈ 0.198 µM) and 0.064 µg/mL (≈ 0.135 µM), respectively.
As to `C[C@@H](O)[C@H]1C(=O)N2C(C(=O)O)=C(SCCNC=N)C[C@H]12` [IMIPENEM ANHYDROUS], the figures for the minimum inhibitory concentration (MIC) with Escherichia coli [1] and in the assay with Escherichia coli [3] were 1 µg/mL (≈ 3.34 µM) and 0.5 µg/mL (≈ 1.67 µM), respectively.
As for `C[C@@H](O)[C@H]1C(=O)N2C(C(=O)O)=C(S[C@@H]3CN[C@H](C(=O)N(C)C)C3)[C@H](C)[C@H]12` [MEROPENEM], the figures for the MIC in the assay on Escherichia coli [1], with Escherichia coli [2] and with Escherichia coli [3] were 0.25 µg/mL (≈ 0.652 µM), 0.023 µg/mL (≈ 0.06 µM) and 0.032 µg/mL (≈ 0.0834 µM), respectively.
The matching figures for `CN(C)[C@@H]1C(O)=C(C(N)=O)C(=O)[C@@]2(O)C(O)=C3C(=O)c4c(O)cccc4[C@@](C)(O)[C@H]3C[C@@H]12` [TETRACYCLINE]: more than 256 µg/mL, 1 µg/mL (≈ 2.25 µM) and 1 µg/mL (≈ 2.25 µM).
